The values below come from patent publication US3984555A, “Therapeutic piperazinylalkyl-quinazolone-(4)-derivatives” (Byk Gulden Lomberg Chemische Fabrik Gesellschaft mit …, priority 1970, dated 1976).

For data set [1] the following is noted: German Published patent application No. 1,231,705 and 1,249,281; cited from earlier work.
Data set [2] concerns running activity of mice pre-treated with α-amphetamine sulphate. The experiment in a line: Inhibition of running activity of mice pre-treated with α-amphetamine sulphate (Table III, c). The class given is in vivo. The note with it: Mus musculus, ip, 3 h, 5 mg/kg α-amphetamine sulphate, 180 minutes; for inhibition in vivo at 12 mg/kg: 12mg/kg i/p, read-out: c % inhibition of motility in the treadwheel by 12mg/kg i/p; for inhibition in vivo at 25 mg/kg: 25mg/kg i/p, read-out: c % inhibition of motility in the treadwheel by 25mg/kg i/p.

For data set [3], the system named is mouse. Put plainly: Inhibition of spontaneous motility, sedation, muscular relaxation, loss of grip on horizontal wire mesh in mice (Table III, b). The class given is in vivo. The note with it: po, dose at which an average of 50% of the mice display symptoms, read-out: b SD50 mg/kg oral.
The test system of data set [4] is defence reaction after the thermal stimulation of the tail of the mouse. Put plainly: Analgesic effect on the mouse: delay in defence reaction after thermal stimulation of the tail (Table IV). The class given is in vivo. As to conditions: po; mouse; per os; 25% delay; read-out: Delay in the defence reaction after the thermal stimulation of the tail of the mouse by 25% by mg/kg per os. From the text:
From Table IV below one can see the analgesic action, measured in terms of the delayed reaction during the thermal irritation of the mouse tail. The analgesically effective doses are also below those which reduce the motor behaviour, that is to say the normal movement processes (cf. Table III).
Analgesic effect on the mouse
Delay in the defence reaction after
the thermal stimulation of the tail

For data set [5], the system named is duration of sleep of mice under hexobarbital. Put plainly: Prolongation of hexobarbital sleep in mice (Table III, d). The note with it: Mus musculus, ip; 15 mg/kg i.p.; 75 mg/kg hexobarbital; read-out: d % prolongation of sleep under hexebarbital by 15 mg/kg i.p. The class given is in vivo. On the procedure:
d = percentage prolongation of the duration of sleep of mice which had received 75 mg/kg. of hexobarbital, reckoned on the duration of the sleep of control animals.

In data set [6] the test system is hypertensive effect of 1-adrenalin. The experiment in a line: 50% inhibition of hypertensive effect of 0.001 mg/kg i/v 1-adrenalin on the despinalised rat (Table II). The class given is in vivo. The note with it: iv, read-out: 50% inhibition of hypertensive effect after i/v dose of Adrenalin by mg/kg i/v. The protocol: (§1) also on the hypertensive effect of 0.001 mg/kg i/v 1-adrenalin and
(§2) blood pressure and the cardiac frequency of the narcosed rate and also on
(§3) the hypertensive effect of 0.001 mg/kg i.v. 1-adrenaline and noradrenaline
(§4) on the despinalised rat. The mean lethal doses for the mouse are also

For data set [7], the system named is blood pressure and cardiac frequency of the narcotised rat. Put plainly: Influence on the blood pressure and the cardiac frequency of the narcotised rat (Table II). The class given is in vivo. The note with it: iv, i/v, read-out: Blood pressure lowered by 30% by mg/kg i/v. The source says: Influence on the blood pressure and the cardiac frequency of the
blood pressure and the cardiac frequency of the narcosed rate and also on […]

In data set [8] the test system is blood pressure and cardiac frequency of the narcotised cat. Put plainly: Influence on the blood pressure and cardiac frequency of the narcotised cat (Table I). The class given is in vivo. Further details: unit not given here. As to conditions: for Blood pressure lowered by 30% by: dose lowering blood pressure by 30%; for Blood pressure lowered by 50% by: dose lowering blood pressure by 50%. From the text: (§5) Influence on the blood pressure and cardiac frequency and also
(§6) on the carotid sinus reflex of the narcotised cat
(§7) Table I provides a general summary of the influence of different piperazinylquinazolones on the blood pressure, the cardiac frequency and the carotid sinus reflex of the narcotised cat.

Another data set relates to carotid sinus reflex. Put plainly: Inhibition of the carotid sinus reflex of the narcotised cat (Table I). The class given is in vivo. Also on record: unit not given here. As to conditions: for Inhibition of the carotid sinus reflex by 30% by: dose for 30% inhibition; for Inhibition of the carotid sinus reflex by 50% by: dose for 50% inhibition.
Excerpt: as §5, §6, §7
The inhibition of the carotid sinus reflex brought about by the piperazinyl quinazolones occurs at lower doses than the spontaneous lowering of the blood pressure in the cat.

Data set [9] deals with mouse. Put plainly: Mice falling from a rotating bar (Table III, a). The class given is in vivo. The note with it: ip, read-out: a PD50 mg/kg i.p. From the text:
The central damping actions of the piperazinyl quinazolones on the mouse can be seen from Table III.
a = dose at which 50% of the mice fall from a rotating bar;

Data set [10] relates to hypertensive effect of noradrenalin. Put plainly: 50% inhibition of hypertensive effect of 0.001 mg/kg i/v noradrenalin on the despinalised rat (Table II). As to conditions: iv, read-out: 50% inhibition of hypertensive effect after i/v dose of Noradrenalin by mg/kg i/v. The class given is in vivo. On the procedure: as §1, §2, §3, §4
A short description of data set [11]: LD50 (mean lethal dose) on the mouse (Table II). The note with it: in vivo.
Excerpt: as §4

For data set [12], the system named is systolic and diastolic blood pressure. Put plainly: Orientating clinical test in patients (FIGS. 1 and 2). The class given is in vivo, 7 female and 1 male patient.
Where [13] appears, read: 10 and 20 mg per os, 7 female and 1 male patient.

Consider `CCOc1ccc2nc(CN(C)C)n(C)c(=O)c2c1` [2-dimethylaminomethyl-3-methyl-6-ethoxyquinazolone-4], for which the “analgesic action compared with 4-dimethylamino-1-phenyl-2,3-dimethylpyrazolone-5” value in data set [1] is “comparable”.

As for `COc1cc2nc(CCN3CCN(c4ccccc4C)CC3)[nH]c(=O)c2cc1OC` [Example 2, 2-(2-(1-(2-tolyl)-piperazinyl-4)ethyl)-6,7-dimethoxy-4(3H)-quinazolone], in data set [2], the inhibition in vivo at 12 mg/kg was determined as 11% and the inhibition in vivo at 25 mg/kg worked out at 10%. Also, the ED50 in the data set with mouse [3] stood at 140 mg/kg. In [4], the ED25 stood at 1 mg/kg. The change in vivo at 15 mg/kg in data set [5] turned out to be 121%. Also, in data set [6], the ED50 was 0.042 mg/kg. Besides, in data set [7], the ED30 is 0.65 mg/kg. Moreover, in [8], the “Blood pressure lowered by 30% by” value amounted to 0.029 and the “Blood pressure lowered by 50% by” value was greater than 1.6. Besides, in the data set with carotid sinus reflex, the “Inhibition of the carotid sinus reflex by 30% by” value (shortened to “Inhibition … by 30% by”) was less than 0.01 and the “Inhibition of the carotid sinus reflex by 50% by” value (from here on “Inhibition … by 50% by”) came out at 0.02. Further, in the data set on mouse [9], the ED50 came out at 35 mg/kg. The ED50 in data set [10] amounted to 1.4 mg/kg. The LD50 (in general, the dose expected to kill half of the subjects tested) in data set [11] was 70 mg/kg.

As for `COc1cc2nc(CCN3CCN(c4ccccc4OC)CC3)[nH]c(=O)c2cc1OC` [Example 6, 2-(2-(1-(2-methoxyphenyl)piperazinyl-4)ethyl)-6,7-dimethoxy-4(3H)-quinazolone], in [2], the inhibition in vivo at 12 mg/kg came out at 19% and the inhibition in vivo at 25 mg/kg stood at 28%. For the same compound, in [12] (setting [13]), the “effect on the sensorium” value is given as “no effect on the sensorium”, the “lowering of the diastolic blood pressure” value is “statistically significant lowering”, the “lowering of the systolic blood pressure” value is reported as “statistically significant lowering” and the tolerance result is listed as “very good tolerance”. Moreover, in [12] (10 vs 20 mg, FIGS. 1 and 2), the “difference in the action of 10 and 20 mg.” value is listed as “statistically confirmed”. Moreover, in data set [12] (mean initial blood pressure 171.9 mm Hg systolic, 95.3 mm Hg diastolic, FIGS. 1 and 2), the “dose dependence of the lowering of the blood pressure” value is given as “dependent upon the dose”. Further, the ED50 with mouse [3] was 40 mg/kg. The ED25 in data set [4] was found to be 1.5 mg/kg. For the same compound, in data set [5], the change in vivo at 15 mg/kg was 79%. Besides, the ED50 in data set [6] is 0.036 mg/kg. The ED30 in data set [7] stood at 0.35 mg/kg. Also, in data set [8], the “Blood pressure lowered by 30% by” value stood at 0.07 and the “Blood pressure lowered by 50% by” value is 0.61. Also, in the data set with carotid sinus reflex, the “Inhibition … by 30% by” value turned out to be 0.12 and the “Inhibition … by 50% by” value was 0.35. Further, the ED50 in the data set on mouse [9] amounted to 34 mg/kg. For the same compound, the ED50 in data set [10] was greater than 2.5 mg/kg. Further, in [11], the LD50 was 600 mg/kg.

As to `CCOc1ccccc1N1CCN(CCc2nc3cc(OC)c(OC)cc3c(=O)[nH]2)CC1` [Example 10, 2-(2-(1-(2-ethoxyphenyl)piperazinyl-4)ethyl)-6,7-dimethoxy-4(3H)-quinazolone], the ED25 in [4] is 2 mg/kg. Also, the ED50 in [6] turned out to be 0.0085 mg/kg. In addition, the ED30 in data set [7] was 0.4 mg/kg. Moreover, in [8], the “Blood pressure lowered by 30% by” value stood at 0.03 and the “Blood pressure lowered by 50% by” value worked out at 1.4. Also, in the data set on carotid sinus reflex, the “Inhibition … by 30% by” value is recorded as less than 0.02 and the “Inhibition … by 50% by” value worked out at 0.03. Also, the ED50 in [10] is 1.8 mg/kg. Moreover, the LD50 in [11] stood at 300 mg/kg.

Regarding `COc1cc2nc(CCN3CCN(c4ccccc4Cl)CC3)[nH]c(=O)c2cc1OC` [Example 11, 2-(2-(1-(2-chlorophenyl)piperazinyl-4)ethyl)-6,7-dimethoxy-4(2H)-quinazolone], in data set [2], the inhibition in vivo at 12 mg/kg amounted to 18% and the inhibition in vivo at 25 mg/kg is 32%. In the data set on mouse [3], the ED50 is 110 mg/kg. Moreover, in data set [4], the ED25 came out at 4 mg/kg. Also, the change in vivo at 15 mg/kg in data set [5] worked out at 87%. In addition, the ED50 in data set [6] amounted to 0.048 mg/kg. Further, the ED30 in [7] was determined as 0.1 mg/kg. Further, in data set [8], the “Blood pressure lowered by 30% by” value came to 0.04 and the “Blood pressure lowered by 50% by” value is recorded as greater than 1.6. In the data set on carotid sinus reflex, the “Inhibition … by 30% by” value is reported as 0.017 and the “Inhibition … by 50% by” value is 0.04. For the same compound, the ED50 in the data set on mouse [9] was determined as 53 mg/kg. The ED50 in data set [10] was greater than 2.5 mg/kg. The LD50 in data set [11] worked out at 200 mg/kg.

As to `COc1cc2nc(CCN3CCN(c4ccccc4F)CC3)[nH]c(=O)c2cc1OC` [Example 14, 2-(2-(1-(2-fluorophenyl)piperazinyl-4)ethyl)-6,7-dimethoxy-4(3H)-quinazolone], the inhibition in vivo at 25 mg/kg in data set [2] amounted to 1%. Besides, the ED50 with mouse [3] was 180 mg/kg; in data set [6], 0.058 mg/kg; in the data set with mouse [9], 61 mg/kg; in data set [10], greater than 2.5 mg/kg. The ED25 in data set [4] came out at 2 mg/kg. For the same compound, the change in vivo at 15 mg/kg in data set [5] is 68%. The ED30 in data set [7] is 0.18 mg/kg. Moreover, in [8], the “Blood pressure lowered by 30% by” value is 0.9. Besides, the “Blood pressure lowered by 50% by” value in data set [8] is reported as greater than 1.6. In addition, in the data set with carotid sinus reflex, the “Inhibition … by 30% by” value was 0.04. Also, the “Inhibition … by 50% by” value in the data set with carotid sinus reflex is 0.15. Also, the LD50 in data set [11] was found to be 150 mg/kg.
